Data: ChEMBL document CHEMBL3885861, “Open TG-GATES”

Species: Rattus norvegicus
Assay: Open TG-GATES - Regimen: Daily Repeat
Type: toxicity, organism-based, Sprague-Dawley
Design: regimen Daily Repeat, gender Male, age 6 weeks
Conditions: in vivo, po, 6 mg/kg, route gavage, dose level High; for APTT / Bas / Eos / Fbg / Hb / Ht / Lym / MCH / MCHC / MCV / Mono / Neu / PT / Plat / RBC / Ret / WBC: tissue Blood; for KIDNEY_L / KIDNEY_R / KIDNEY_TOTAL: tissue Kidney; for LIVER: tissue Liver; for A/G / ALP / ALT / AST / BUN / CRE / Ca / Cl / DBIL / GLC / IP / K / LDH / Na / PL / RALB / TBIL / TC / TG / TP / gamma-GTP: tissue Plasma

SMILES: O=NN(CCCl)C(=O)NC1CCCCC1 [LOMUSTINE]
- TERMINAL_BW (72 h, time 3 day): 213.1 g
- APTT (72 h, time 3 day): 16.1 s
- Bas (72 h, time 3 day): 0%
- Eos (72 h, time 3 day): 0.6%
- Fbg (72 h, time 3 day): 212.8 mg/dL
- Hb (72 h, time 3 day): 13 g/dL
- Ht (72 h, time 3 day): 38.9%
- Lym (72 h, time 3 day): 86%
- MCH (72 h, time 3 day): 21.3 pg
- MCHC (72 h, time 3 day): 33.3%
- MCV (72 h, time 3 day): 64.1 fL
- Mono (72 h, time 3 day): 5.6%
- Neu (72 h, time 3 day): 8%
- PT (72 h, time 3 day): 11.9 s
- Plat (72 h, time 3 day): 114.8 x10_4/uL
- RBC (72 h, time 3 day): 607.2 x10_4/ul
- Ret (72 h, time 3 day): 6.1%
- WBC (72 h, time 3 day): 100.8 x10_2/uL
- KIDNEY_L (72 h, time 3 day): 1 g
- KIDNEY_R (72 h, time 3 day): 1 g
- KIDNEY_TOTAL (72 h, time 3 day): 2 g
- LIVER (72 h, time 3 day): 10.2 g
- A/G (72 h, time 3 day): 2.2
- ALP (72 h, time 3 day): 1003.2 IU/L
- ALT (72 h, time 3 day): 30.4 IU/L
- AST (72 h, time 3 day): 65 IU/L
- BUN (72 h, time 3 day): 15.6 mg/dL
- CRE (72 h, time 3 day): 0.5 mg/dL
- Ca (72 h, time 3 day): 10.8 mg/dL
- Cl (72 h, time 3 day): 104.8 meq/L
- DBIL (72 h, time 3 day): 0.028 mg/dL
- GLC (72 h, time 3 day): 179 mg/dL
- IP (72 h, time 3 day): 9 mg/dL
- K (72 h, time 3 day): 4.7 meq/L
- LDH (72 h, time 3 day): 105.4 IU/L
- Na (72 h, time 3 day): 139 meq/L
- PL (72 h, time 3 day): 136.6 mg/dL
- RALB (72 h, time 3 day): 3.9 g/dL
- TBIL (72 h, time 3 day): 0.3 mg/dL
- TC (72 h, time 3 day): 75.6 mg/dL
- TG (72 h, time 3 day): 56.4 mg/dL
- TP (72 h, time 3 day): 5.8 g/dL
- gamma-GTP (72 h, time 3 day): 1.8 IU/L
- TERMINAL_BW ([…], time 7 day): 225.8 g
- TERMINAL_BW ([…], time 14 day): 229.7 g
- TERMINAL_BW ([…], time 28 day): 202.6 g
- APTT ([…], time 7 day): 15.7 s
- Bas ([…], time 7 day): 0%
- Eos ([…], time 7 day): 0.4%
- Fbg ([…], time 7 day): 237.4 mg/dL
- Hb ([…], time 7 day): 14.3 g/dL
- Ht ([…], time 7 day): 43.1%
- Lym ([…], time 7 day): 80.6%
- MCH ([…], time 7 day): 20.9 pg
- MCHC ([…], time 7 day): 33.3%
- MCV ([…], time 7 day): 62.9 fL
- Mono ([…], time 7 day): 8.8%
- Neu ([…], time 7 day): 10.2%
- PT ([…], time 7 day): 11.7 s
- Plat ([…], time 7 day): 124 x10_4/uL
- RBC ([…], time 7 day): 686.4 x10_4/ul
- Ret ([…], time 7 day): 3.4%
- WBC ([…], time 7 day): 73.5 x10_2/uL
- APTT ([…], time 14 day): 15.8 s
- Bas ([…], time 14 day): 0%
- Eos ([…], time 14 day): 0.6%
- Fbg ([…], time 14 day): 237.4 mg/dL
- Hb ([…], time 14 day): 15.1 g/dL
- Ht ([…], time 14 day): 44.8%
- Lym ([…], time 14 day): 75.4%
- MCH ([…], time 14 day): 20.1 pg
- MCHC ([…], time 14 day): 33.7%
- MCV ([…], time 14 day): 59.8 fL
- Mono ([…], time 14 day): 14.4%
- Neu ([…], time 14 day): 9.6%
- PT ([…], time 14 day): 11.2 s
- Plat ([…], time 14 day): 133.2 x10_4/uL
- RBC ([…], time 14 day): 750 x10_4/ul
- Ret ([…], time 14 day): 1.2%
- WBC ([…], time 14 day): 75.3 x10_2/uL
- APTT ([…], time 28 day): 15.2 s
- Bas ([…], time 28 day): 0%
- Eos ([…], time 28 day): 0.8%
- Fbg ([…], time 28 day): 255.7 mg/dL
- Hb ([…], time 28 day): 15.6 g/dL
- Ht ([…], time 28 day): 45.3%
- Lym ([…], time 28 day): 58.5%
- MCH ([…], time 28 day): 18.9 pg
- MCHC ([…], time 28 day): 34.5%
- MCV ([…], time 28 day): 54.6 fL
- Mono ([…], time 28 day): 22.5%
- Neu ([…], time 28 day): 18.8%
- PT ([…], time 28 day): 11.6 s
- Plat ([…], time 28 day): 121.1 x10_4/uL
- RBC ([…], time 28 day): 832.2 x10_4/ul
- Ret ([…], time 28 day): 2.5%
- WBC ([…], time 28 day): 114.2 x10_2/uL
- KIDNEY_L ([…], time 7 day): 1 g
- KIDNEY_R ([…], time 7 day): 1 g
- KIDNEY_TOTAL ([…], time 7 day): 2.1 g
- KIDNEY_L ([…], time 14 day): 1.1 g
- KIDNEY_R ([…], time 14 day): 1.1 g
- KIDNEY_TOTAL ([…], time 14 day): 2.1 g
- KIDNEY_L ([…], time 28 day): 1.4 g
- KIDNEY_R ([…], time 28 day): 1.3 g
- KIDNEY_TOTAL ([…], time 28 day): 2.7 g
- LIVER ([…], time 7 day): 10.6 g
- LIVER ([…], time 14 day): 10.5 g
- LIVER ([…], time 28 day): 9.5 g
- A/G ([…], time 7 day): 1.7
- ALP ([…], time 7 day): 656.6 IU/L
- ALT ([…], time 7 day): 48.4 IU/L
- AST ([…], time 7 day): 97 IU/L
- BUN ([…], time 7 day): 16.6 mg/dL
- CRE ([…], time 7 day): 0.5 mg/dL
- Ca ([…], time 7 day): 11.2 mg/dL
- Cl ([…], time 7 day): 105.6 meq/L
- DBIL ([…], time 7 day): 0.03 mg/dL
- GLC ([…], time 7 day): 170.4 mg/dL
- IP ([…], time 7 day): 7.3 mg/dL
- K ([…], time 7 day): 4.7 meq/L
- LDH ([…], time 7 day): 139.6 IU/L
- Na ([…], time 7 day): 139.2 meq/L
- PL ([…], time 7 day): 156 mg/dL
- RALB ([…], time 7 day): 3.8 g/dL
- TBIL ([…], time 7 day): 0.3 mg/dL
- TC ([…], time 7 day): 98.4 mg/dL
- TG ([…], time 7 day): 55.8 mg/dL
- TP ([…], time 7 day): 6.1 g/dL
- gamma-GTP ([…], time 7 day): 2.6 IU/L
- A/G ([…], time 14 day): 1.6
- ALP ([…], time 14 day): 694.4 IU/L
- ALT ([…], time 14 day): 101.6 IU/L
- AST ([…], time 14 day): 223.6 IU/L
- BUN ([…], time 14 day): 23.4 mg/dL
- CRE ([…], time 14 day): 0.6 mg/dL
- Ca ([…], time 14 day): 11.3 mg/dL
- Cl ([…], time 14 day): 105.8 meq/L
- DBIL ([…], time 14 day): 0.3 mg/dL
- GLC ([…], time 14 day): 159.8 mg/dL
- IP ([…], time 14 day): 6.4 mg/dL
- K ([…], time 14 day): 4.7 meq/L
- LDH ([…], time 14 day): 210.6 IU/L
- Na ([…], time 14 day): 139.6 meq/L
- PL ([…], time 14 day): 236.8 mg/dL
- RALB ([…], time 14 day): 3.8 g/dL
- TBIL ([…], time 14 day): 0.4 mg/dL
- TC ([…], time 14 day): 159.8 mg/dL
- TG ([…], time 14 day): 48.2 mg/dL
- TP ([…], time 14 day): 6.2 g/dL
- gamma-GTP ([…], time 14 day): 4.6 IU/L
- A/G ([…], time 28 day): 1.3
- ALP ([…], time 28 day): 520.8 IU/L
- ALT ([…], time 28 day): 153.2 IU/L
- AST ([…], time 28 day): 484.2 IU/L
- BUN ([…], time 28 day): 31.2 mg/dL
- CRE ([…], time 28 day): 0.2 mg/dL
- Ca ([…], time 28 day): 11.3 mg/dL
- Cl ([…], time 28 day): 106.2 meq/L
- DBIL ([…], time 28 day): 3.9 mg/dL
- GLC ([…], time 28 day): 137 mg/dL
- IP ([…], time 28 day): 5.9 mg/dL
- K ([…], time 28 day): 4.8 meq/L
- LDH ([…], time 28 day): 298.8 IU/L
- Na ([…], time 28 day): 142.2 meq/L
- PL ([…], time 28 day): 301 mg/dL
- RALB ([…], time 28 day): 3.5 g/dL
- TBIL ([…], time 28 day): 3.3 mg/dL
- TC ([…], time 28 day): 207.2 mg/dL
- TG ([…], time 28 day): 118 mg/dL
- TP ([…], time 28 day): 6.1 g/dL
- gamma-GTP ([…], time 28 day): 11.8 IU/L
